The results in this text go back to patent US20260184700A1, “PDK1 REGULATORY COMPOUND AND COMPOSITION CONTAINING THE SAME” (PROVIBIO CO., LTD., priority 2024, published 2026).

The test system of data set [1] is phospho-PDK1 in SU-DHL-8 cells. Briefly: PDK1 phosphorylation (pPDK1) by flow cytometry in SU-DHL-8 cells. The data set is classed as cell-based, human. The following applies: SU-DHL-8, 24 hours, pPDK1-PE flow cytometry, vs control group. As for the experimental part:
SU-DHL-8 cells were cultured in RPMI-1640 medium (containing 10% FBS, 100 U/mL penicillin, and 100 μg/mL streptomycin), and the cell concentration was adjusted to 1×10^6 cells/mL and seeded into a 12-well plate. After stabilizing the cells, the compound of the present invention was added, and the cells were cultured for 24 hours.
After drug treatment, the cells were harvested, and the Fc receptor blocking process was performed. The cells were then fixed and permeabilized using the Intracellular Staining Kit (Cat. No. BD554715) from BD Biosciences. Subsequently, the intracellular pPDK1 was stained using the pPDK1-PE fluorescently labeled antibody (BD Biosciences).
Referring to the figure, the vertical axis represents the phosphorylation level of PDK1 (phospho-PDK1 expression level), and the horizontal axis denotes the concentration-dependent treatment conditions of each compound.
(A flow cytometer gives signals particle by particle.)

Data set [2] has as its system Human Colorectal Carcinoma cell line, HCT-116. Briefly: Relative cell viability, CCK-8, HCT-116. It is filed as cell-based. The conditions noted are these: 48 hours. How it is done:
Human-derived breast cancer cell line MCF-7, human-derived lung cancer cell line A549, human-derived colorectal cancer cell line HCT-116, human pancreatic cancer cell line AsPC-1, glioblastoma cell line A172, and melanoma cell line Malme-3M were obtained from the Korean Cell Bank. gastric cancer cell line SNU-719, and bladder cancer cell line T24 were cultured in RPMI-1640 medium containing 10% FBS.
Following stabilization, the cells were harvested using Trypsin-EDTA treatment, centrifuged at 1,200 rpm for 3 minutes, the supernatant was removed, and the cells were resuspended in the same medium. They were then seeded into a 96-well plate (Costar 96-well cell culture plate, Corning) at 100 μL per well, and the conditions were adjusted as indicated in Table 5.
The cells were cultured in a 5% CO2 incubator at 37° C. for 24 hours, and after stabilization of the cells, each plate was washed with 200 μL of PBS per well and treated with 50 μL of culture medium per well.
After that, 10 μL of CCK-8 was added to each well, and the plate was incubated again at 37° C. in a 5% CO2 incubator for 2 hours.
In other words, when the survival rate of untreated cells (DMSO) is set at 100%, the relative cell survival rate in each group treated with the drug at different concentrations is indicated.

Data set [3] concerns psoriasis-induced BALB/c mice. Kind of data set: Psoriasis animal model (Aldara cream, Imiquimod). The data set is classed as in vivo, mouse. As for the experimental part:
To verify the therapeutic effect of the compound according to the present invention on psoriasis, a psoriasis animal model was established as follows, and the compound according to the present invention was administered to evaluate the alleviation of skin lesions and changes in immune cell patterns.
For the establishment of the psoriasis animal model, BALB/c mice (7 weeks old, female, 20 g) were purchased from HanabioTech Co., Ltd. and acclimatized to the rearing environment for one week.
Subsequently, the hair on the mouse back was shaved using a hair removal device for the first time, and then completely shaved using a depilatory cream (Nicrin Cream (80% thioglycolic acid, Il Dong Pharmaceutical)) for the second time. The mice were then kept for 24 hours to confirm the absence of skin damage.
To verify the psoriasis prevention and therapeutic effects of the compounds according to the present invention, the following experimental groups were established:
[Normal control group (Normal, Not Treatment), psoriasis-induced control group (Psoriasis, Not Treatment), psoriasis-induced vehicle control group (Psoriasis, Vehicle), experimental group (GO85, GO86, GO88, GO89, PBK-2024-010, PBK-2024-026, PBK-2025-002, PBK-2025-004, PBK-2025-016, PBK-2025-017, PBK-2025-023)]. […]
Body weights of mice in each group were measured on days 1, 4, and 8 after the start of injection and psoriasis induction. […]
To evaluate the therapeutic effect in a psoriasis-induced mouse model, the PASI (Psoriasis Area and Severity Index) score was measured.
The PASI score is based on three criteria: erythema, scaling, and skin thickness, each scored from 0 (none) to 4 (severe). […]
Observations were conducted daily at the same time, and the same observer visually assessed each criterion and recorded the scores, with the results presented in FIG. 13. […]
All samples were measured in duplicate, and the absorbance was measured at 450 nm using a microplate reader.

The test system of data set [4] is Collagen I in human lung fibroblasts MRC-5. Kind of data set: TGF-β-induced Collagen I expression in MRC-5 cells, Western blot. It is filed as cell-based. The conditions noted are these: MRC-5, TGF-β (5 ng/ml), GO88 0.5 μM and 1 μM, 24 hours. As for the experimental part:
To confirm that the compound of the present invention directly acts on fibrosis-related mechanisms, in vitro experiments were performed using human lung fibroblasts MRC-5 cell lines (Korea Cell Bank).
First, MRC-5 cells were seeded at 5×10^3 cells per well in a 6-well plate and stabilized for 24 hours.
Subsequently, experimental groups were established, including a control group, a group treated with TGF-β (5 ng/ml) alone, and groups treated with TGF-β and the compound GO88 from the present invention at concentrations of 0.5 μM and 1 μM, respectively.
After treating each group with the drugs for 24 hours, the cell medium was removed, and the cells were washed twice with cold PBS. Then, RIPA lysis buffer containing phosphatase inhibitor and protease inhibitor was added to each group to extract proteins.
The extracted proteins were incubated at 4° C. for 30 minutes, then centrifuged at 13,000 rpm for 15 minutes, and the supernatant was collected. The total protein concentration was measured using the BCA protein quantification method.
Subsequently, the proteins were separated by SDS-PAGE, transferred to a PVDF membrane, and Western blot analysis was performed.
The expression levels of Collagen I, a marker related to pulmonary fibrosis, were confirmed, with GAPDH used as an internal control.
(In western blotting, separated proteins are transferred to a membrane and probed.)

As for `CC1(C)CN(CCCCCCCCCCCCC(=O)Nc2nc(N)c3[nH]cnc3n2)CCO1` [Compound 11, 12-[4-(2,2-dimethylmorpholin-4-yl)]dodecyl-N-(6-aminopurine-2-yl)carboxamide], in data set [1], the “PDK1 phosphorylation (phospho-PDK1 expression level)” value is “stronger PDK1 inhibition”. The “Relative cell viability (%)” value is on record as 21.36% in data set [2] (HCT-116, 1 μM); 24.91% in data set [2] (HCT-116, 10 μM); 24.78% in data set [2] (HCT-116, 30 μM); 25.26% in data set [2] (HCT-116, 50 μM). In addition, in data set [3], the “efficacy in improving dermatological symptoms” value was “excellent efficacy in improving dermatological symptoms”.

As to `Nc1ncccc1C(=O)NCCCCCCCCCCCCN1CCNCC1` [Compound 14, 2-Amino-N-(12-(piperazin-1-yl)dodecyl)nicotinamide], the “PDK1 phosphorylation (phospho-PDK1 expression level)” value in data set [1] is given as “stronger PDK1 inhibition”. Moreover, the “efficacy in improving dermatological symptoms” value in data set [3] is listed as “excellent efficacy in improving dermatological symptoms”. Moreover, in data set [4], the “protein expression of Collagen I” value was “inhibited in a concentration-dependent manner”.
